From patent US10160729B2, “Hsp70 modulators and methods for making and using the same” (Memorial Sloan Kettering Cancer Center, priority 2014, dated 2018)

Test system: MOLM-13 cells
Assay: Caspase cleavage assay (Caspase3, 7 activation)
Format: cell-based
Conditions: Homo sapiens, 16 h treatment, caspase substrate Z-DEVD-R110, read-out: c* Concentration at which 50% of the maximum signal was achieved (caspase activation)
Summary of the method: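 Cells (30,000/well, RPMI) treated 16 h with compound or DMSO in triplicate, then given buffer with 10 mM HEPES pH 7.5, 2 mM EDTA, 0.1% CHAPS and 25 μM Z-DEVD-R110. Fluorescence read once signal stabilized; results given as percentage increase in apoptotic cells versus DMSO-treated control.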

First: CNC(=O)c1ccc(Sc2cnc(N3CCN(C)CC3)nc2OCc2ccccc2)cc1 [compound 83, 4-((4-(Benzyloxy)-2-(4-methylpiperazin-1-yl)pyrimidin-5-yl)thio)-N-methylbenzamide]
Second: CN1CCN(c2ncc(Sc3ccc(N)nc3)c(OCc3ccccc3)n2)CC1 [compound 32, 5-((4-(Benzyloxy)-2-(4-methylpiperazin-1-yl)pyrimidin-5-yl)thio)pyridin-2-amine]
The EC50 of the first is higher: 0.4 to 1 µM for the first, 0.2 to 0.4 µM for the second. The second is the more potent here.

`COc1c(F)ccc(COc2nc(N3CCN(C)CC3)ncc2Sc2ccc(C(N)=O)c(Cl)c2)c1F` [compound 112, 2-Chloro-4-((4-((2,4-difluoro-3-methoxybenzyl)oxy)-2-(4-methylpiperazin-1-yl)pyrimidin-5-yl)thio)benzamide] and `COc1ccc(F)c(COc2nc(N3CCN(C)CC3)ncc2Sc2ccc(C(N)=O)c(C(F)(F)F)c2)c1` [compound 138, 4-((4-((2-Fluoro-5-methoxybenzyl)oxy)-2-(4-methylpiperazin-1-yl)pyrimidin-5-yl)thio)-2-(trifluoromethyl)benzamide] cannot be ordered by EC50: less than 0.2 µM for the first, less than 0.2 µM for the second.

First: C#CCCCCN1CCN(c2ncc(Sc3ccc(C(N)=O)cc3)c(OCc3cccc(OC)c3)n2)CC1 [190j, 4-((2-(4-(Hex-5-yn-1-yl)piperazin-1-yl)-4-((3-methoxybenzyl)oxy)pyrimidin-5-yl)thio)benzamide]
Second: COc1cccc(COc2nc(N3CCOCC3)ncc2Sc2ccc(C(N)=O)cc2)c1 [190a, 4-((4-((3-Methoxybenzyl)oxy)-2-morpholinopyrimidin-5-yl)thio)benzamide]
The EC50 of the first is lower: less than 0.2 µM for the first, 0.2 to 0.4 µM for the second. The first is the more potent here.

First: COc1cccc(COc2nc(N3CCNC(=O)C3)ncc2Sc2ccc(C(N)=O)cc2)c1 [compound 319, 4-((4-((3-Methoxybenzyl)oxy)-2-(3-oxopiperazin-1-yl)pyrimidin-5-yl)thio)benzamide]
Second: COc1cccc(COc2nc(N3CCN(CC4CC4)C(=O)C3)ncc2Sc2ccc(C(N)=O)cc2)c1 [compound 321, 4-((2-(4-(Cyclopropylmethyl)-3-oxopiperazin-1-yl)-4-((3-methoxybenzyl)oxy)pyrimidin-5-yl)thio)benzamide]
The EC50 of the first is higher: no less than 1.2 µM for the first, less than 0.2 µM for the second.

First: C#CCN1CCN(c2ncc(Sc3ccc(C(N)=O)c(C(F)(F)F)c3)c(OCc3cccc(I)c3)n2)CC1 [compound 357, 4-((4-((3-Iodobenzyl)oxy)-2-(4-(prop-2-yn-1-yl)piperazin-1-yl)pyrimidin-5-yl)thio)-2-(trifluoromethyl)benzamide]
Second: C#CCN1CCN(c2ncc(Sc3ccc(C(N)=O)c(C(F)(F)F)c3)c(OCc3cccc(N(C)C)c3)n2)CC1 [compound 339, 4-((4-((3-(Dimethylamino)benzyl)oxy)-2-(4-(prop-2-yn-1-yl)piperazin-1-yl)pyrimidin-5-yl)thio)-2-(trifluoromethyl)benzamide]
The EC50 of the first is lower: 0.2 to 0.4 µM for the first, 0.4 to 1 µM for the second. The first is the more potent here.

Compared with `CN1CCN(c2ncc(Sc3ccc(C(N)=O)cc3)c(OCc3ccnc(N)c3)n2)CC1` [100r, 4-((4-((2-Aminopyridin-4-yl)methoxy)-2-(4-methylpiperazin-1-yl)pyrimidin-5-yl)thio)benzamide], `CN1CCN(c2ncc(Sc3ccc(C(N)=O)cc3)c(OCc3cccc(N(C)C)c3)n2)CC1` [100a, 4-((4-((3-(Dimethylamino)benzyl)oxy)-2-(4-methylpiperazin-1-yl)pyrimidin-5-yl)thio)benzamide] is lower in EC50: 1 to 1.2 µM for the first, less than 0.2 µM for the second.

Compared with `COc1cccc(COc2nc(N3CCN(C)CC3)ncc2Sc2ccc(C(N)=O)c(C(F)(F)F)c2)c1` [compound 136, 4-((4-((3-Methoxybenzyl)oxy)-2-(4-methylpiperazin-1-yl)pyrimidin-5-yl)thio)-2-(trifluoromethyl)benzamide], `CC(C)c1cccc(COc2nc(N3CCN(C)CC3)ncc2Sc2ccc(C(N)=O)c(C(F)(F)F)c2)c1` [compound 331, 4-((4-((3-Isopropylbenzyl)oxy)-2-(4-methylpiperazin-1-yl)pyrimidin-5-yl)thio)-2-(trifluoromethyl)benzamide] is higher in EC50: less than 0.2 µM for the first, no less than 1.2 µM for the second.

Compared with `NC(=O)c1ccc(Sc2cnc(N3CCN(C4CC4)CC3)nc2OCc2cccc(Cl)c2)cc1C(F)(F)F` [compound 227, 4-((4-((3-Chlorobenzyl)oxy)-2-(4-cyclopropylpiperazin-1-yl)pyrimidin-5-yl)thio)-2-(trifluoromethyl)benzamide], `CN1CCN(c2ncc(Sc3ccc(C(N)=O)c(C(F)(F)F)c3)c(OCc3ccc(F)cc3F)n2)CC1` [compound 135, 4-((4-((2,4-Difluorobenzyl)oxy)-2-(4-methylpiperazin-1-yl)pyrimidin-5-yl)thio)-2-(trifluoromethyl)benzamide] is lower in EC50: no less than 1.2 µM for the first, 0.2 to 0.4 µM for the second.

Going from `COc1cccc(COc2nc(N3CC[C@@H](N(C)C)C3)ncc2Sc2ccc(C(N)=O)cc2)c1` [190e, (R)-4-((2-(3-(dimethylamino)pyrrolidin-1-yl)-4-((3-methoxybenzyl)oxy)pyrimidin-5-yl)thio)benzamide] to `CN1CCN(c2ncc(Oc3ccc(C(N)=O)cc3)c(OCc3ccccc3)n2)CC1` [compound 282, 4-((4-(Benzyloxy)-2-(4-methylpiperazin-1-yl)pyrimidin-5-yl)oxy)benzamide], the EC50 rises from less than 0.2 µM to no less than 1.2 µM. The first is the more potent here.

Test system: diffuse large B-cell lymphoma (DLBCL) cells
Assay: Growth inhibition (CellTiter-Glo) in DLBCL cells, including cells with induced resistance to PU-H71
Format: cell-based, human
Conditions: FIG. 1B; DLBCL cells with induced resistance to Hsp90 inhibitor PU-H71
From the text: (§1) Cell lines: MDA-MB-468 cells were obtained from the American Type Culture Collection. DLBCL cells were described in Cerchietti L C, et al. BCL6 repression of EP300 in human diffuse large B cell lymphoma cells provides a basis for rational combinatorial therapy. J Clin Invest. Dec. 1, 2010; 120(12): 4569-4582; and Cerchietti L C, et al. A purine scaffold Hsp90 inhibitor destabilizes BCL-6 and has specific antitumor activity in BCL-6-dependent B cell lymphomas. Nat Med. 2009 December; 15(12):1369-76. MDA-MB-468 cells were grown in DME/F12 with 10% FBS and 1% penicillin and streptomycin. OCI-LY1R cells were developed by continuous incubation of OCI-LY1 cells with suboptimal concentrations of PU-H71 (depicted below) with subsequent selection of resistant clones. OCI-LY1, OCI-LY1R and OCI-LY7 cells were cultured in IMDM supplemented with 20% FBS, 1% glutamax and 1% penicillin and streptomycin. OCI-LY3, FARAGE, HBL1, Karpas422, MD901, U2932, SU-DHL4, SU-DHL6, RCK8 and TMD8 cells were grown in RPMI with 10% FBS, 1% glutamax and 1% penicillin and streptomycin.
Growth inhibition: 5,000 cells per well were plated in black 96-well microtiter plates and treated next day with indicated compounds at 1/2 serial dilutions. The plate was incubated for 72h after which growth was measured using the CellTiter-Glo Luminescent Cell Viability Assay (Promega) according to manufacture's instructions. The percentage cell growth inhibition was calculated by comparing luminescence readings obtained from treated versus control cells, accounting for initial cell population. The luminescence signal in each well was measured using the Analyst GT microplate reader (Molecular Devices).

`CN1CCN(c2ncc(Sc3ccc(N)nc3)c(OCc3ccccc3)n2)CC1` [compound 32, 5-((4-(Benzyloxy)-2-(4-methylpiperazin-1-yl)pyrimidin-5-yl)thio)pyridin-2-amine] was tested, and the “Activity in DLBCL cells with induced resistance to PU-H71” value was “retains activity”.

Same assay, conditions: FIG. 1C; PU-H71-sensitive versus compound 32-sensitive DLBCL lines

`CN1CCN(c2ncc(Sc3ccc(N)nc3)c(OCc3ccccc3)n2)CC1` [compound 32, 5-((4-(Benzyloxy)-2-(4-methylpiperazin-1-yl)pyrimidin-5-yl)thio)pyridin-2-amine] was tested, and the “Spectrum of sensitive DLBCLs” value was “does not overlap”.
For `CC(C)NCCCn1c(Sc2cc3c(cc2I)OCO3)nc2c(N)ncnc21` [PU-H71, reference compound], the “Spectrum of sensitive DLBCLs” value was “does not overlap”.

Test system: MDA-MB-468 triple negative breast cancer cells
Assay: Western blot of anti-apoptotic protein complexes
Format: cell-based
Conditions: FIG. 1A, MDA-MB-468 cells, 24 h
From the text: as §1
Western blot: Cells were plated and treated next day with indicated drug concentrations for 24h. […] The chemiluminescent signal was detected using the Enhanced Chemiluminescence Detection System (Amersham Biosciences) according to the manufacturer's instructions.

For `CN1CCN(c2ncc(Sc3ccc(N)nc3)c(OCc3ccccc3)n2)CC1` [compound 32, 5-((4-(Benzyloxy)-2-(4-methylpiperazin-1-yl)pyrimidin-5-yl)thio)pyridin-2-amine], the “Effect on Hsp70-regulated anti-apoptotic protein complexes” value was “effects reverted”.
